In patent US9180139B2, “Regulator, pharmaceutical composition encompassing the regulator and application thereof” (NATIONAL CHENG KUNG UNIVERSITY, priority 2012, dated 2015):

Tests used:
[1] = tested on: EMP2 mRNA expression of RT4 bladder cancer cell line; assay: Northern blotting of EMP2 mRNA expression in RT4 cells treated with genistein; format: cell-based; settings: genistein 10 μg/mL, 24 hours, normalized to β-actin
Method: FIG. 1A is a northern blotting figure showing the respective EMP2 mRNA expressions of RT4 bladder cancer cell line treated with genistein (10 μg/mL) for 24 hours (Isoflavone treatment group) or not (Control group).
Please refer to FIG. 1A which is a northern blotting figure. […] That is, genistein, the isoflavone compound, can up-regulate the EMP2 mRNA expression of RT4 cells.

[2] = tested on: EMP2 mRNA expression of TSGH8301 human bladder cancer cell line; assay: Relative quantification of EMP2 mRNA expression in TSGH8301 cells incubated with genistein; format: cell-based
Method: TSGH8301 cell lines were initially incubated with mediums containing 2 μM, 5 μM and 10 μM of genistein, respectively, and the respective EMP2 mRNA expressions was measured at sixth day, wherein mRNA expressions of housekeeping gene was taken as the baseline control.
TSGH8301 cells were initially incubated with medium containing 15 μM of genistein and EMP2 mRNA expressions were measured at second, fourth and sixth days, respectively, wherein mRNA expressions of housekeeping gene of TSGH8301 cell lines were taken as the baseline control. With increase of incubating durations, EMP2 mRNA expression of TSGH8301 cells incubated with genistein was increased as shown in FIG. 3.

β3 integrin = assay: Expression of β3 integrin after shRNA transfection; format: cell-based, human; settings: TSGH8301 and TSGH8301/EMP2-2 cell lines
Source text: (§1) These two cell lines were transfected with small hairpin RNAs (shRNA) against αV and β3 integrins, respectively. In brief, TSGH8301 and TSGH8301/EMP2-2 cell lines were transfected with shRNAs of A1 or C1 against β3 integrin, shRNAs of H1 or G1 against αV integrin. The mRNA of EMP2 and TBP of these transfected cell lines were harvested for quantification by real-time PCR. The sequences of shRNAs of A1 (SEQ ID NO. 1), C1 (SEQ ID NO. 2), H1 (SEQ ID NO. 3) and G1 (SEQ ID NO. 4) are 5′-[…] CATAATGTTTTT-3′, 5′-[…] AACAGGGTTTTT-3′, 5′-[…] GTAAGGCTTTTTG-3′ and 5′-[…] TCCCTCGTTTTTG-3′, respectively. After transfections of shRNAs of A1, C1, H1 and G1, expressions of αV and β3 integrins in TSGH8301 and TSGH8301/EMP2-2 cell lines were repressed correspondingly. Besides, mRNA expression of EMP2 and TBP in TSGH8301 and TSGH8301/EMP2-2 cell lines without transfection was taken as controls (Ctl).

αV integrin = assay: Expression of αV integrin after shRNA transfection; format: cell-based, human; settings: TSGH8301 and TSGH8301/EMP2-2 cell lines
Source text: as §1

Row | Compound | expression of β3 integrin after shRNA transfection (β3 integrin) | expression of αV integrin after shRNA transfection (αV integrin) | other results
1 | O=c1c(-c2ccc(O)cc2)coc2cc(O)cc(O)c12 [genistein] | – | – | EMP2 mRNA expression compared with Control group (defined as 1) [1]: up to 3.5 times; EMP2 mRNA expression, dependence on genistein concentration ([2]; 2 μM, 5 μM and 10 μM genistein, measured at sixth day, P=0.03 two way ANOVA): dose-dependent up-regulation; EMP2 mRNA expression, dependence on incubating duration ([2]; 15 μM genistein, measured at second, fourth and sixth days, P=0.03 one way ANOVA): time-dependent up-regulation
2 | A1: shRNA against β3 integrin, 5′-CCGGCATTATGTTTACAGAGGACAACTCGAGTTGTCCTCTGTAAA CATAATGTTTTT-3′ (CCGGCATTATGTTTACAGAGGACAACTCGAGTTGTCCTCTGTAAACATAATGTTTTT) | repressed | – | –
3 | C1: shRNA against β3 integrin, 5′-CCGGCCCTGTTACAATATGAAGAATCTCGAGATTCTTCATATTGT AACAGGGTTTTT-3′ (CCGGCCCTGTTACAATATGAAGAATCTCGAGATTCTTCATATTGTAACAGGGTTTTT) | repressed | – | –
4 | G1: shRNA against αV integrin, 5′-CCGGCGAGGGAAGTTACTTCGGATTCTCGAGAATCCGAAGTAACT TCCCTCGTTTTTG-3′ (CCGGCGAGGGAAGTTACTTCGGATTCTCGAGAATCCGAAGTAACTTCCCTCGTTTTTG) | – | repressed | –
5 | H1: shRNA against αV integrin, 5′-CCGGGCCTTACAAATACAACAACAACTCGAGTTGTTGTTGTATTT GTAAGGCTTTTTG-3′ (CCGGGCCTTACAAATACAACAACAACTCGAGTTGTTGTTGTATTTGTAAGGCTTTTTG) | – | repressed | –
